Assay results published in patent US20110039693A1, “Pyrimidylmethyl Sulfonamide Compounds” (BASF SE, priority 2008, published 2011).
Read-outs that look alike come from different tables or passages of the source.

What was measured:
[1] = tested on: Puccinia recondita; assay: Synergistic mixture glasshouse trial: preventative control of brown rust caused by Puccinia recondita; assay type: in vivo; details: single compound, wheat, untreated control 80% diseased leaf area
Description: The spray solutions were prepared in several steps: The stock solution were prepared: a mixture of acetone and/or dimethylsulfoxide and the wetting agent/emulsifier Wettol, which is based on ethoxylated alkylphenoles, in a relation (volume) solvent-emulsifier of 99 to 1 was added to 25 mg of the compound to give a total of 10 ml. Water was then added to total volume of 100 ml. This stock solution was diluted with the described solvent-emulsifier-water mixture to the given concentration.
The first two developed leaves of pot-grown wheat seedling were sprayed to run-off with an aqueous suspension, containing the concentration of active ingredient or their mixture as described below. The next day the plants were inoculated with spores of Puccinia recondita. To ensure the success the artificial inoculation, the plants were transferred to a humid chamber without light and a relative humidity of 95 to 99% and 20 to 22° C. for 24 h. Then the trial plants were cultivated for 6 days in a greenhouse chamber at 22-26° C. and a relative humidity between 65 and 70%. The extent of fungal attack on the leaves was visually assessed as % diseased leaf area.
The percentages diseased leaf area were converted into efficacies. An efficacy of 0 means that the infection level of the treated plants corresponds to that of the untreated control plants; an efficacy of 100 means that the treated plants were not infected.
The expected efficacies of active compound mixtures were determined using Colby's formula as described earlier herein.

[2] = tested on: Septoria tritici; assay: Synergistic mixture microtiter test: leaf blotch on wheat caused by Septoria tritici; assay type: cell-based; details: single compound
[3] = tested on: Pyrenophora teres; assay: Synergistic mixture microtiter test: Pyrenophora teres; assay type: cell-based; details: single compound
[4] = tested on: Alternaria solani; assay: Synergistic mixture microtiter test: Alternaria solani; assay type: cell-based; details: single compound
[5] = tested on: Phytophthora infestans; assay type: cell-based; details: single compound

Row | SMILES | Observed efficacy (%) ([1]; 16 ppm) | Observed efficacy (%) ([2]; 4 ppm) | Observed efficacy (%) ([3]; 0.25 ppm) | Observed efficacy (%) ([4]; 0.25 ppm) | further results
1 | O=C(Nc1ccccc1-c1ccc(Cl)cc1)c1cccnc1Cl [Boscalid, boscalid, reference compound] | 0% | 75% | 63% | – | Observed efficacy (%) ([1]; 4 ppm): 0%; Observed efficacy (%) ([3]; 0.016 ppm): 0%
2 | COc1nccc(CNS(=O)(=O)c2ccc(OCc3cncc(C(F)(F)F)c3)cc2)n1 [Example I-125] | – | 23% | – | 4% | Observed efficacy (%) ([1]; 4 ppm): 13%
3 | COc1nccc(CNS(=O)(=O)c2ccc(Oc3ncc(C(F)(F)F)cc3Cl)c(C)c2)n1 [Example I-17, 4-(3-chloro-5-trifluoromethyl-pyridin-2-yloxy)-N-(2-methoxy-pyrimidin-4-ylmethyl)-3-methyl-benzenesulfonamide] | – | – | – | – | melting point: 138 °C
4 | CCOc1nccc(CNS(=O)(=O)c2ccc(Oc3ncccc3C(F)(F)F)cc2)n1 [Example I-52] | 29% | 29% | – | 0% | Observed efficacy (%) ([5]; 16 ppm): 53%; Observed efficacy (%) ([4]; 4 ppm): 0%
5 | COc1cc(CNS(=O)(=O)c2ccc(Oc3ccc(C(F)(F)F)cn3)cc2)nc(OC)n1 [Example I-88] | – | – | 16% | 4% | –
6 | COc1nccc(CNS(=O)(=O)c2ccc(Oc3ccc(C(F)(F)F)cn3)cc2C)n1 [Example I-22] | – | – | – | 3% | Observed efficacy (%) ([3]; 0.016 ppm): 1%
7 | CSc1nccc(CNS(=O)(=O)c2ccc(Oc3ncc(C(F)(F)F)cc3Cl)cc2)n1 [Example I-5] | – | 22% | 0% | 2% | Observed efficacy (%) ([3]; 4 ppm): 21%
8 | Fc1ccc([C@]2(Cn3cncn3)O[C@H]2c2ccccc2Cl)cc1 (racemic) [Epoxiconazole, epoxiconazole, reference compound] | – | – | 8% | – | Observed efficacy (%) ([1]; 0.25 ppm): 0%
9 | CSc1ncc(F)c(CNS(=O)(=O)c2ccc(Oc3ccc(C(F)(F)F)cn3)cc2)n1 [Example I-72] | 0% | 14% | – | 3% | Observed efficacy (%) ([1]; 4 ppm): 0%; Observed efficacy (%) ([3]; 4 ppm): 14%
10 | COc1cc(CNS(=O)(=O)c2ccc(Oc3ncc(C(F)(F)F)cc3Cl)cc2)nc(OC)n1 [Example I-118] | – | 25% | – | 1% | –
11 | COC(=O)N(OC)c1ccccc1COc1ccn(-c2ccc(Cl)cc2)n1 [Pyraclostrobin, pyraclostrobin, reference compound] | – | – | – | – | Observed efficacy (%) ([1]; 0.25 ppm): 0%; Observed efficacy (%) ([5]; 0.25 ppm): 38%; Observed efficacy (%) ([2]; 0.063 ppm): 74%; Observed efficacy (%) ([3]; 0.004 ppm): 0%; Observed efficacy (%) ([4]; 0.063 ppm): 48%
12 | O=S(=O)(NCc1ccnc(C2CC2)n1)c1ccc(Oc2ncccc2C(F)(F)F)cc1 [Example I-27] | 27% | 27% | – | 3% | Observed efficacy (%) ([3]; 4 ppm): 26%; Observed efficacy (%) ([4]; 4 ppm): 0%
